Measured values: US6316421A, “Pentaerythritol lipid derivatives and nuleic-acid complexes” (The Regents of the University of California, priority 2000, dated 2001)

How the values were obtained:
[1] = Relative cytotoxicity by MTS assay (CellTiter 96) of lipoplex-treated NIH 3T3 cells; format: cell-based; conditions: mouse, nih 3t3 cells, 1:1 lipid:DOPE, 2:1 charge ratio, FIG. 2, read-out: treated cells impaired
Experimental: (§1) FIG. 2 is a bar graph showing luciferase transfection results as the mean (n=4) and standard deviation of total luciferase light units (RLU, left vertical axis) obtained from NIH 3T3 cells lysed after administration of […] of DNA. Relative cytotoxicity, depicted by the solid line, is plotted according to the right vertical axis, calculated as described in Example 3. With the exception of DOTAP, 1:1 cationic lipid:DOPE liposomes at a 2:1 molar charge ratio (lipid charge to DNA phosphate charge) were used for lipoplex formation. DOTAP was used without a co-lipid.
(§2) Cell viability was determined by evaluating the […] dehydrogenase activity of post-transfected cells prior to lysis using the CellTiter 96 Aqueous Non-Radioactive Cell Proliferation Assay (Promega). The tetrazolium salt solution (Owen's Reagent; […]) was added to each well and the 24 well plate was then gently agitated to ensure complete mixing. After incubation for an additional 3-4 h, each well was assayed for formazan production by removing an aliquot of the medium and diluting with 9 parts phosphate buffered saline (PBS) solution. The dilution was conducted in a 1.5 mL methylacrylate UV/VIS disposable cell, and the relative amount of formazan was determined by taking absorbance reading at 490 nm using PBS as the reference. The mean (n=4) of the absorbance values was calculated and compared to the mean absorbance value for non-transfected cells. The final results were expressed in terms of relative cytotoxicity. Relative cytotoxicity was calculated by subtracting from one the ratio of mean absorbance value for transfected cells over mean absorbance value for untreated cells. A relative cytotoxicity value of zero implies no difference from untreated cells, no measurable cytotoxicity. The maximum value of one implies total cell death for treated cells, no measurable formazan production indicating significant toxicity. Negative values may reflect enhanced formazan production as a consequence of cell growth relative to untreated cells.
(§3) To test whether (DMTM(Gly)) and (DOTM(GLY)) ameliorate lipid-induced cytotoxicity, a cell viability assay was performed. The relative cytotoxicity for these lipids and the popular transfection lipids DOTAP and DC-Chol was determined by measuring the […] dehydrogenase activity for lipoplex-treated cells. The comparative assay was performed using NIH 3T3 and 16HBE14o- cells, and the results are plotted in FIGS. 2 and 3, respectively. A requisite for evaluation of cytotoxicity is the concurrent determination of relative transfection activity. Thus, the cationic lipids were evaluated for relative cytotoxicity immediately prior to determination of luciferase activity. […]

NIH 3T3 cells [2] = assay: as above; format: cell-based; conditions: 1:1 lipid:DOPE, 2:1 charge ratio, FIG. 2
Experimental: as §1, §2, §3

[3] = tested on: NIH 3T3 and 16HBE14o- cells; assay: GFP reporter gene transfection (pEGFP-C1), fluorescence microscopy; format: cell-based; conditions: 48 h post-transfection
Experimental: (§4) Fluorescence experiments were conducted by transfecting the pEGFP-C1 C-Terminal protein fusion vector (Clontech, Palo Alto, Calif.) into NIH 3T3 and 16HBE14o- cells. The transfection protocol was identical to that of luciferase expression experiments in Example 1. Cells were grown for 48 h post-transfection, fixed with 3.7% formaldehyde, and viewed on a Zeiss ICM 405 inverted microscope with high resolution long-working distance objectives. Cells were photographed on the fluorescein channel and with phase contrast optics with a 40× water objective, using T-Max 400 (Kodak, Rochester, N.Y.) film.
(§5) To probe relationships between cellular uptake, expression, and cytotoxicity, a transfection study was conducted using the GFP reporter gene. Fluorescent microscopy of cells treated with GFP-encoded plasmid is a sensitive tool for determining the occurrence of transgene expression. […] Thus, the onset of cytotoxicity precedes gene expression.

[4] = tested on: NIH 3T3 and 16HBE14o- cells; assay: Phase contrast microscopy of cells transfected with GFP lipoplexes; format: cell-based; conditions: for cell morphology by phase contrast: 48 h post-transfection, cell line not stated
Experimental: as §4, §5

NIH 3T3 cells [5] = assay: Luciferase transfection (pGL3-control plasmid), NIH 3T3 cells; format: cell-based; conditions: for facilitating the intracellular delivery of plasmid DNA: Example 2 conclusion, luciferase plasmid
Experimental: FIG. 1 is a bar graph showing the transfection activity of DMTM(Gly):DOPE liposomes as a function of the mole percent DOPE. DNA transfections were performed using NIH 3T3 cells. Lipoplexes were formulated at a 2:1 molar charge ratio (lipid charge to DNA phosphate charge). The values shown are the mean (n=4) and standard deviation of total luciferase light units (RLU) obtained from cells lysed after administration of […] DNA.
as §1
(§6) a.) Liposome Formulation.
(§7) The cationic lipid […] and DOPE […] were added as chloroform solutions to a 1.9 mL sample vial. The chloroform was evaporated using a stream of dry argon at room temperature. The resulting thin lipid films were placed under vacuum for 2-3 h to ensure that all traces of solvent were removed. Sterile water (1.0 mL) was then added to hydrate the lipid thin films, and the resultant suspension was vigorously mixed (vortex) at room temperature with occasional warming in a 60° C. water bath. The resultant 1.0 mM lipid suspension was used within 2 h of hydration.
(§8) NIH 3T3 cells were obtained from ATCC (CRL 1658) and grown in Dulbecco's Modified Eagle's Medium (DMEM; GIBCO) with 10% fetal calf serum (GIBCO) in a humidified 10% CO2 incubator at 37° C. Human bronchial epithelial cells (16HBE14o-) were cultured in Eagle's modified essential medium (MEM; GIBCO) supplemented with 10% fetal bovine serum (GIBCO), 1% glutamine (GIBCO), 1% penicillin and streptomycin (GIBCO), and grown in a 5% humidified CO2 incubator at 37° C. Both cell lines were subcultured into sterile, untreated flasks.
The NIH 3T3 cells were plated at 50,000 cells per well on a standard 24 well plate (Corning, Corning, N.Y.) 24 h prior to transfection. Cells were approximately 80% confluent at the time of transfection. The HBE cells were plated at 50,000 cells/well on a 24 well tissue culture plate coated with fibronectin, vitrogen (collagen), and bovine serum albumin as previously described (Gruenert, D. C., Basbaum C. B., and Widdicombe J. H. (1990) In Vitro Cell Dev Biol., 26, 411-418.) and were transfected as subconfluent monolayers 24 h prior to transfection. The growth media was removed via aspiration and each well was washed once with 0.5 mL buffered saline and overlaid with only MEM.
Cationic lipid-DNA complexes were prepared 15-40 mins prior to transfection. The pGL3-control vector encoding for firefly luciferase (Promega, Madison, Wis.) was. slowly added to a diluted (DMEM or MEM) quantity of the cationic lipid:DOPE suspension in a polystyrene tube. (Falcon #2058), and the lipid-DNA complex was diluted to a final volume of […]. Typically (e.g. using DOTAP), […] of the lipid suspension was used to complex […] of the plasmid DNA, yielding a 2:1 cationic lipid:DNA phosphate molar ratio. Immediately on DNA addition, the suspension was vortexed and allowed to incubate for 15 min at room temperature. A […] aliquot of the resultant lipid-DNA suspension was added to each well […]. The treated cells were then incubated for 4 h at 37° C. Control wells were treated with […] of medium without supplement. At this time, […] of the appropriate growth media including 10% FCS was added to all wells and the cells cultured for 48 h prior to lysis and analysis.
(§9) Relative luciferase activity was determined by using the Enhanced Luciferase Assay Kit and a Moonlight 2010 luminometer (Analytical Luminescence Laboratories, Sparks, Md.). […]

16HBE14o- cells = assay: Luciferase transfection (pGL3-control plasmid), 16HBE14o- cells; format: cell-based, Human; conditions: FIG. 3
Experimental: as §1, with “FIG. 3” for “FIG. 2”, “from 16HBE14o-” for “from NIH 3T3”
as §6, §7
as §8, with “Both cell lines were subcultured into sterile, untreated flasks.” left out
Cationic lipid-DNA complexes were prepared 15-40 mins prior to transfection. The pGL3-control vector encoding for firefly luciferase (Promega, Madison, Wis.) was. slowly added to a diluted (DMEM or MEM) quantity of the cationic lipid:DOPE suspension in a polystyrene tube. […]
as §9

Compound | cytotoxicity [1] | cytotoxic response (MTS relative cytotoxicity) (NIH 3T3 cells [2]) | GFP gene transfer (presence of fluorescent cells) [3] | cell morphology by phase contrast [4] | vacuolization compared with DOTM(Gly), DOTAP, or DMTM(Gly) ([4]; phase contrast) | lipid:DOPE optimization results compared with DMTM(Gly) (NIH 3T3 cells [5]; DOPE titration, compared with DMTM(Gly):DOPE) | facilitating the intracellular delivery of plasmid DNA (NIH 3T3 cells [5]) | expression in comparison to DOTAP and DC-Cholesterol (NIH 3T3 cells [5]; NIH 3T3, 1:1 lipid:DOPE (DOTAP without co-lipid), FIG. 2) | transfection activity compared with dimyristoyl analog (NIH 3T3 cells [5]; NIH 3T3, 1:1 lipid:DOPE, 2:1 charge ratio, FIG. 2) | expression in comparison to DOTAP and DC-Cholesterol (16HBE14o- cells; 1:1 lipid:DOPE (DOTAP without co-lipid)) | transfection activity compared with dimyristoyl analog (16HBE14o- cells; 1:1 lipid:DOPE, 2:1 charge ratio) | transfection activity compared with DOTAP and DC-Chol (NIH 3T3 cells [5]; NIH 3T3, 1:1 lipid:DOPE, FIG. 2) | transfection activity on co-formulation with DOPE (DOPE titration) (NIH 3T3 cells [5]; NIH 3T3, equimolar lipid and DOPE, 2:1 molar charge ratio, FIG. 1) | effect of larger percentage DOPE on transfection activity (NIH 3T3 cells [5]; NIH 3T3, larger percentage DOPE than equimolar, FIG. 1) | transfection activity compared with DOTAP and DC-Chol (16HBE14o- cells; 1:1 lipid:DOPE)
CC(C)CCC[C@@H](C)[C@H]1CC[C@H]2[C@@H]3CC=C4C[C@@H](OC(=O)NCCN(C)C)CC[C@]4(C)[C@H]3CC[C@]12C [DC-Chol, 3,β-(N-(N',N'-dimethylaminoethane)-carbamoyl)cholesterol, reference compound] | ~60% | significantly more cytotoxic | active in facilitating gene transfer | dense regions of large vacuoles | significantly greater vacuolization | – | – | – | – | – | – | – | – | – | –
CCCCCCCC/C=C\CCCCCCCC(=O)OCC(COC(=O)CCCCCCC/C=C\CCCCCCCC)(COC(=O)C[N+](C)(C)C)COC(=O)C[N+](C)(C)C [DOTM(Gly), dioleoyl bis (N,N,N-trimethylglycyl) tetraester] | – | did not induce a cytotoxic response | active in facilitating gene transfer | normal cellular morphology | – | similar | capable of facilitating the intracellular delivery of plasmid DNA | reaching an order of magnitude greater expression | greater transfection activity than the dimyristoyl analog | reaching an order of magnitude greater expression | greater transfection activity than the dimyristoyl analog | – | – | – | –
CCCCCCCCCCCCCC(=O)OCC(COC(=O)CCCCCCCCCCCCC)(COC(=O)C[N+](C)(C)C)COC(=O)C[N+](C)(C)C [DMTM(Gly), dimyristoyl bis(N,N,N-trimethylglycyl) tetraester] | – | did not induce a cytotoxic response | – | – | – | – | capable of facilitating the intracellular delivery of plasmid DNA | – | – | – | – | transfection activities similar to DOTAP and DC-Chol | near optimal transfection activity | only negligible improvement | transfection activities similar to DOTAP and DC-Chol
